Experiments:
[1] = target: Serine/threonine-protein kinase PLK3 (Homo sapiens, UniProt Q9H4B4); test: Inhibition of human PLK3 using ATF2 as substrate incubated for 40 mins in presence of [gamma-33P]ATP/Mg acetate by scintillation counting analysis
[2] = target: Serine/threonine-protein kinase PLK1 (Homo sapiens, UniProt P53350); test: Inhibition of human PLK1 using ATF2 as substrate incubated for 40 mins in presence of [gamma-33P]ATP/Mg acetate by scintillation counting analysis
[3] = target: Serine/threonine-protein kinase PLK2 (Homo sapiens, UniProt Q9NYY3); test: Inhibition of human PLK2 using ATF2 as substrate incubated for 40 mins in presence of [gamma-33P]ATP/Mg acetate by scintillation counting analysis
[4] = Selectivity ratio of IC50 for inhibition of human PLK3 using ATF2 as substrate to IC50 for inhibition of human PLK1 using ATF2 as substrate
[5] = Selectivity ratio of IC50 for inhibition of human PLK2 using ATF2 as substrate to IC50 for inhibition of human PLK1 using ATF2 as substrate
SW-620 = test: cells; settings: Homo sapiens
NCI-H460 = test: cells; settings: Homo sapiens
PC-9 = test: cells; settings: Homo sapiens
KG-1 = test: cells; settings: Homo sapiens
A549 = test: cells; settings: Homo sapiens
CCRF-CEM = test: cells; settings: Homo sapiens
K562 = test: cells; settings: Homo sapiens
HL-60 = test: cells; settings: Homo sapiens

Sequence of Serine/threonine-protein kinase PLK3 (Q9H4B4 whole entry): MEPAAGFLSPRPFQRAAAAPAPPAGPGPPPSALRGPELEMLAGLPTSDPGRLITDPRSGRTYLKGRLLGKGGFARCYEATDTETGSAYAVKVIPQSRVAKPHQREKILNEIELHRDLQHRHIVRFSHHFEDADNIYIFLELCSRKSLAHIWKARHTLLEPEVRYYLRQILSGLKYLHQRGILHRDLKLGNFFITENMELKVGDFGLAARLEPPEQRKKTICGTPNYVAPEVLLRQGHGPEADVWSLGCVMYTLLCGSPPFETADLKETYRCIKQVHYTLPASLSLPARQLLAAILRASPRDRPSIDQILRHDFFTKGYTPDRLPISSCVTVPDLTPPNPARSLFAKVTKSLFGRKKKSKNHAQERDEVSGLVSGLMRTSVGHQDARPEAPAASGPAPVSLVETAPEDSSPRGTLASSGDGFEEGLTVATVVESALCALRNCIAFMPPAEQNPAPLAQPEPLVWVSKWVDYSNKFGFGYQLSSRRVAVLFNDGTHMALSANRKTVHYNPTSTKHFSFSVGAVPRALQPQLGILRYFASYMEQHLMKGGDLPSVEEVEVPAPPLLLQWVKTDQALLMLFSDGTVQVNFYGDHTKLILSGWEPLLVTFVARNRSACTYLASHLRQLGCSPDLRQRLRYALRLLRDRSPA
Sequence of Serine/threonine-protein kinase PLK2 (Q9NYY3 whole entry): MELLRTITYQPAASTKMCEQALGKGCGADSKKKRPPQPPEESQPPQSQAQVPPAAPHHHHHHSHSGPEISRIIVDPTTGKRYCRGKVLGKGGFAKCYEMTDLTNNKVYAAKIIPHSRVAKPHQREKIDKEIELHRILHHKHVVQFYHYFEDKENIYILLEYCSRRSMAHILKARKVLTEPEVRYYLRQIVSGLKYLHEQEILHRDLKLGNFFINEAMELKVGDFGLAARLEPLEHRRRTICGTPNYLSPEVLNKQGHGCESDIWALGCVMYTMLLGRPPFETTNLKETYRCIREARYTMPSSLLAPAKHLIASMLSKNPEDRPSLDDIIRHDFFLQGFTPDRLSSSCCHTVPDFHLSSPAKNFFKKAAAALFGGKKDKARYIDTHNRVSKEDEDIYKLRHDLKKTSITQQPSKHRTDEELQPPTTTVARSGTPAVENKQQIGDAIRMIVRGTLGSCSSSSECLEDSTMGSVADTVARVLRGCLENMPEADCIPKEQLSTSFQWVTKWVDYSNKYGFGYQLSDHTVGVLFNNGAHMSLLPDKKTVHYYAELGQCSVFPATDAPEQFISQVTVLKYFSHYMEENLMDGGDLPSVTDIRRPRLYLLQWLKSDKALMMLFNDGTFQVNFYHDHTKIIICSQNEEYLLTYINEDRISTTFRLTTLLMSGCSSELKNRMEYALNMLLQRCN
Sequence of Serine/threonine-protein kinase PLK1 (P53350 whole entry): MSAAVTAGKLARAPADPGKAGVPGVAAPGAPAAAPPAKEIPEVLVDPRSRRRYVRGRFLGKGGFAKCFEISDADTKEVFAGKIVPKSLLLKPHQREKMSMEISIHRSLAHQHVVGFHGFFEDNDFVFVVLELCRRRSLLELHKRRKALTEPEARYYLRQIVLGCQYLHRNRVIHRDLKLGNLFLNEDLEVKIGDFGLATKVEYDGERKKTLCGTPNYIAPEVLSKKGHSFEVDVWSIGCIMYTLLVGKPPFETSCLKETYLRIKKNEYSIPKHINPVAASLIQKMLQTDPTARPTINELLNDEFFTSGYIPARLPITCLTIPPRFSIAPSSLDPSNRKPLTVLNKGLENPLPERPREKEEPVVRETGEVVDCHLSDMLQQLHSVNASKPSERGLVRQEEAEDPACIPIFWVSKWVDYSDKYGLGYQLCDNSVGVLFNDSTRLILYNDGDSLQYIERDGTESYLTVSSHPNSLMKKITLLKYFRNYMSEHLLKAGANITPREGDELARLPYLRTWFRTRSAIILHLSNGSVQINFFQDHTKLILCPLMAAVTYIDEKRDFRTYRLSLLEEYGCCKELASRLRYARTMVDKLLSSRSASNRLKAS

| Compound | IC50 [1] [nM] | IC50 [2] [nM] | IC50 [3] [nM] | IC50 (SW-620) [nM] | IC50 (NCI-H460) [nM] | IC50 (PC-9) [nM] | IC50 (KG-1) [nM] | IC50 (A549) [nM] | IC50 (CCRF-CEM) [nM] | IC50 (K562) [nM] | IC50 (HL-60) [nM] | ratio [4] | ratio [5] |
| --- | --- | --- | --- | --- | --- | --- | --- | --- | --- | --- | --- | --- | --- |
| CC[C@@H]1C(=O)N(C)c2cnc(Nc3cc(N4CCN(C(=O)OC(C)(C)C)CC4)ccc3OCCO)nc2N1C1CCCC1 | > 10000 | 138 | > 10000 |  |  |  |  |  |  |  |  | > 73 | > 73 |
| CC[C@@H]1C(=O)N(C)c2cnc(Nc3cc(N4CCNCC4)ccc3OCCCO)nc2N1C(C)C | > 10000 | 40 | > 10000 |  |  |  |  |  |  |  |  | > 250 | > 250 |
| CC[C@@H]1C(=O)N(C)c2cnc(Nc3cc(N4CCC(NC(=O)OC(C)(C)C)CC4)ccc3OCCCO)nc2N1C1CCCC1 | > 10000 | 97 | > 10000 |  |  |  |  |  |  |  |  | > 104 | > 104 |
| CC[C@@H]1C(=O)N(C)c2cnc(Nc3cc(N4CCN(CC)CC4)ccc3OCCO)nc2N1C(C)C | > 10000 | 74 | > 10000 |  |  |  |  |  |  |  |  | > 135 | > 135 |
| CC[C@@H]1C(=O)N(C)c2cnc(Nc3cc(N4CCN(C)CC4)ccc3OC)nc2N1C1CCCC1 | 635 | 21 | 255 |  |  |  |  |  |  |  |  | 30 | 12 |
| CC[C@@H]1C(=O)N(C)c2cnc(Nc3cc(N4CCNCC4)ccc3OCCO)nc2N1C1CCCC1 | 5830 | 39 | > 10100 |  |  |  |  |  |  |  |  | 150 | > 256 |
| CN1CCN(c2ccc(OC(F)(F)F)c(Nc3ncc4c(n3)-c3c(c(C(N)=O)nn3CCO)CC4)c2)CC1 [ONVANSERTIB] |  |  |  | 18 | 36 | 58 | 8660 | 45 | 34 | 12 | 89 |  |  |
| CC[C@@H]1C(=O)N(C)c2cnc(Nc3cc(N4CCC(NC(=O)OC(C)(C)C)CC4)ccc3OC)nc2N1C1CCCC1 | 6450 | 152 | 3370 |  |  |  |  |  |  |  |  | 43 | 22 |
| CC[C@@H]1C(=O)N(C)c2cnc(Nc3cc(N4CCN(C(=O)OC(C)(C)C)CC4)ccc3OCCCO)nc2N1C1CCCC1 | > 10000 | 195 | > 10000 |  |  |  |  |  |  |  |  | > 51 | > 51 |
| CC[C@@H]1C(=O)N(C)c2cnc(Nc3cc(N4CCC(N)CC4)ccc3OCCO)nc2N1C1CCCC1 | > 10000 | 34 | > 10000 |  |  |  |  |  |  |  |  | > 292 | > 292 |
| CC[C@@H]1C(=O)N(C)c2cnc(Nc3cc(N4CCC(N)CC4)ccc3OC)nc2N1C1CCCC1 | 926 | 29 | 505 |  |  |  |  |  |  |  |  | 32 | 17 |
| CC[C@@H]1C(=O)N(C)c2cnc(Nc3cc(N4CCN(C)CC4)ccc3OCCO)nc2N1C(C)C | > 10000 | 33 | > 10000 |  |  |  |  |  |  |  |  | > 303 | > 303 |
| CC[C@@H]1C(=O)N(C)c2cnc(Nc3cc(N4CCN(C)CC4)cc(Cl)c3OC)nc2N1C(C)C | 3990 | 18 | 5560 |  |  |  |  |  |  |  |  | 221 | 314 |
| CC[C@@H]1C(=O)N(C)c2cnc(Nc3cc(N(C)CCN(C)C)cc(F)c3OCCCO)nc2N1C1CCCC1 | 1460 | 20 | 5870 |  |  |  |  |  |  |  |  | 72 | 292 |
| CC[C@@H]1C(=O)N(C)c2cnc(Nc3cc(N4CCN(CC)CC4)ccc3OCCO)nc2N1C1CCCC1 | 6980 | 27 | > 10000 |  |  |  |  |  |  |  |  | 258 | > 370 |
| CC[C@@H]1C(=O)N(C)c2cnc(Nc3cc(N4CCNCC4)ccc3OCCO)nc2N1C(C)C | > 10000 | 101 | > 10000 |  |  |  |  |  |  |  |  | > 99 | > 99 |
| CC[C@@H]1C(=O)N(C)c2cnc(Nc3cc(N4CCC(NC(=O)OC(C)(C)C)CC4)ccc3OCCO)nc2N1C1CCCC1 | > 10000 | 149 | > 10000 |  |  |  |  |  |  |  |  | > 67.1 | > 67.1 |
| CC[C@@H]1C(=O)N(C)c2cnc(Nc3cc(N(C)CCN(C)C)cc(F)c3OC)nc2N1C1CCCC1 | 625 | 13 | 422 |  |  |  |  |  |  |  |  | 48 | 32 |
| CC[C@@H]1C(=O)N(C)c2cnc(Nc3cc(N4CCC(N)CC4)ccc3OCCCO)nc2N1C1CCCC1 | 6010 | 31 | > 10000 |  |  |  |  |  |  |  |  | 192 | > 319 |

The next lines start with results.

| IC50 [1] [nM] | IC50 [2] [nM] | IC50 [3] [nM] | IC50 (SW-620) [nM] | IC50 (NCI-H460) [nM] | IC50 (PC-9) [nM] | IC50 (KG-1) [nM] | IC50 (A549) [nM] | IC50 (CCRF-CEM) [nM] | IC50 (K562) [nM] | IC50 (HL-60) [nM] | Compound | ratio [4] | ratio [5] |
| --- | --- | --- | --- | --- | --- | --- | --- | --- | --- | --- | --- | --- | --- |
| 3220 | 11 | > 10000 | 6.8 | 76 | 82 | > 10000 | 57 | 64 | 5190 | 39 | CC[C@@H]1C(=O)N(C)c2cnc(Nc3cc(N4CCN(C)CC4)cc(F)c3OCCO)nc2N1C1CCCC1 | 306 | > 952 |
| 5670 | 27 | > 10100 |  |  |  |  |  |  |  |  | CC[C@@H]1C(=O)N(C)c2cnc(Nc3cc(N4CCN(C)CC4)ccc3OCCO)nc2N1C1CCCC1 | 245 | > 450 |
| 9370 | 16 | > 10000 | 83 | 95 | 250 | 342 | 492 | 112 | 7.7 | 77 | CC[C@@H]1C(=O)N(C)c2cnc(Nc3cc(N4CCN(C)CC4)cc(F)c3OCCCO)nc2N1C(C)C | 586 | > 625 |
| 778 | 12 | 325 |  |  |  |  |  |  |  |  | CC[C@@H]1C(=O)N(C)c2cnc(Nc3cc(N4CCN(C)CC4)cc(Cl)c3OC)nc2N1C1CCCC1 | 64 | 27 |
| 4910 | 26 | > 10000 |  |  |  |  |  |  |  |  | CC[C@@H]1C(=O)N(C)c2cnc(Nc3cc(N4CCN(CC)CC4)ccc3OCCCO)nc2N1C1CCCC1 | 175 | > 357 |
| 5570 | 23 | > 10000 |  |  |  |  |  |  |  |  | CC[C@@H]1C(=O)N(C)c2cnc(Nc3cc(N4CCNCC4)ccc3OCCCO)nc2N1C1CCCC1 | 225 | > 435 |
| > 10000 | 22 | > 10000 |  |  |  |  |  |  |  |  | CC[C@@H]1C(=O)N(C)c2cnc(Nc3cc(N4CCN(C)CC4)ccc3OCCCO)nc2N1C(C)C | > 300 | > 300 |
|  | 7460 |  |  |  |  |  |  |  |  |  | CC[C@@H]1C(=O)N(C)c2cnc(Nc3cc(N4CCN(C)CC4)cc(F)c3OCCCO)nc2N1C1CCNC1 (some centres undefined) |  |  |
| 5760 | 11 | 7850 |  |  |  |  |  |  |  |  | CC[C@@H]1C(=O)N(C)c2cnc(Nc3cc(N4CCN(C)CC4)cc(Cl)c3OCCO)nc2N1C1CCCC1 | 576 | 764 |
| > 10000 | 30 | > 10000 |  |  |  |  |  |  |  |  | CC[C@@H]1C(=O)N(C)c2cnc(Nc3cc(N4CCN(C)CC4)cc(F)c3OCCO)nc2N1C(C)C | > 330 | > 330 |
| 3670 | 15 | > 10000 | 18 | 326 | 1990 | 588 | 1540 | 63 | 7.7 | 54 | CC[C@@H]1C(=O)N(C)c2cnc(Nc3cc(N4CCN(C)CC4)cc(F)c3OC[C@H](C)O)nc2N1C1CCCC1 | 373 | > 658 |
| > 10000 | 48 | > 10000 |  |  |  |  |  |  |  |  | CC[C@@H]1C(=O)N(C)c2cnc(Nc3cc(N4CCN(C)CC4)cc(Cl)c3OCCO)nc2N1C(C)C | > 208 | > 208 |
| 5160 | 16 | 6600 |  |  |  |  |  |  |  |  | CC[C@@H]1C(=O)N(C)c2cnc(Nc3cc(N4CCN(C)CC4)cc(F)c3OC)nc2N1C(C)C | 322 | 412 |
| > 10000 | 141 | > 10000 |  |  |  |  |  |  |  |  | CC[C@@H]1C(=O)N(C)c2cnc(Nc3cc(N4CCN(C)CC4)cc(F)c3OC[C@H](C)O)nc2N1C(C)C | > 71 | > 71 |
| 1290 | 12 | 610 |  |  |  |  |  |  |  |  | CC[C@@H]1C(=O)N(C)c2cnc(Nc3cc(N4CCN(CC)CC4)cc(F)c3OC)nc2N1C1CCCC1 | 107 | 51 |
| > 10000 | 20 | > 10000 |  |  |  |  |  |  |  |  | CC[C@@H]1C(=O)N(C)c2cnc(Nc3cc(N4CCN(C)CC4)cc(Cl)c3OCCCO)nc2N1C(C)C | > 333 | > 333 |
|  | 9250 |  |  |  |  |  |  |  |  |  | CC[C@@H]1C(=O)N(C)c2cnc(Nc3cc(N4CCN(C)CC4)cc(Cl)c3OCCO)nc2N1C1CCNC1 (some centres undefined) |  |  |
| 1180 | 11 | 459 |  |  |  |  |  |  |  |  | CC[C@@H]1C(=O)N(C)c2cnc(Nc3cc(N4CCN(C)CC4)cc(F)c3OC)nc2N1C1CCCC1 | 108 | 42 |
| > 10000 | 20 | > 10000 |  |  |  |  |  |  |  |  | CC[C@@H]1C(=O)N(C)c2cnc(Nc3cc(N4CCN(CC)CC4)cc(F)c3OCCO)nc2N1C1CCCC1 | > 500 | > 500 |
